The assay concerns the target T1, β–glucosidase.
T1 construct: gene emulsin; sweet almond is only the usual commercial preparation
As to the kind of experiment: p-nitrophenol release, […] nm. It counts as biochemical. Particulars: p-nitrophenyl β-D-glucopyranoside […], phosphate buffer pH […] °C.

Values after ≈ are worked out from the molar mass of the structure shown.

Data on one molecule can be found in publication PMC5834903, “Phytochemical profiling and in vitro screening for anticholinesterase, antioxidant, antiglucosidase and neuroprotective effect of three traditional medicinal plants for Alzheimer’s Disease and Diabetes Mellitus dual therapy” (BMC Complementary and Alternative Medicine, 2018).

As to `O=C1O[C@H](CO)[C@@H](O)[C@H](O)[C@H]1O` [D-Glucono-δ-lactone], the “IC50 Values (μg/mL) / β-Glc” value worked out at 10.68 ± 0.005 µg/mL (≈ 60 µM).
